From patent US9174932B2, “CaSR agonists” (AJINOMOTO CO., INC., priority 2008, dated 2015)
pEC50: −log10 of the molar value. One block for each compound: values may come before it.

What was measured:
[1] = Quantitative sensory evaluation test of kokumi-imparting activity; set-up: species or system human; conditions: for Intensity of kokumi After taste / Intensity of kokumi First-middle taste: score control 0, strong 3, very strong 5, n=4
Experimental: The kokumi-imparting effects can be confirmed by the method such as a gustatory test by a human being as mentioned in Examples of the present invention, but it is not limited to those.
On compounds wherein a calcium receptor activating action was found (sodium salts of Compound Nos. 1, 7 and 21), the intensity of kokumi-imparting activity was examined by a quantitative sensory evaluation test. The used compound was prepared by dissolving 525 mg of the compound No. 1 described in Synthetic Example 1 of Example I in 5 mL of distilled water, adjusting it to pH6.5 to 7 by adding 16.4 mL of 0.1M sodium hydroxide solution thereto, and freeze-drying it to obtain a sodium salt thereof. Further, the used compound was also prepared as follows. 500 mg of the compound No. 7 described in Synthetic Example 7 of Example I was suspended in 5 mL of distilled water. 1.61 mL of 1M sodium hydroxide and 0.8 mL of 2M hydrochloric acid were added thereto at 0° C. respectively to precipitate a solid substance. The precipitated solid substance was taken by filtration and dried under reduced pressure at 40° C. to obtain 426 mg of the compound No. 7. The obtained solid substance was suspended in 10 mL of distilled water. 1.2 mL of 1M sodium hydroxide was added thereto and freeze-dried to obtain a sodium salt thereof. The compound No. 21 was used in the form of a sodium salt of the compound No. 21 described in Synthetic Example 21 of Example I, which was prepared by the same method as mentioned above.
A quantitative sensory evaluation test was conducted as follows. 0.000001 to 0.1 g/dL of the compound(s) (a sodium salt of No. 1) was mixed as a sample to distilled water containing glutamic sodium (0.05 g/dL), inosine monophosphate (0.05 g/dL) and sodium chloride (0.5 g/dL). Then, the intensity of kokumi-imparting activity was examined at that time. As a reference, γ Glu-Cys-Gly and γ Glu-Val-Gly were used, each of which is a known kokumi-imparting component. As for a sample that becomes acidic to an additive-free control after dissolving the sample, it was used by being adjusted with sodium hydroxide to become within pH±0.2 to the additive-free control. As for sensory scoring, it was defined as a control: 0, strong: 3, and very strong: 5; and n=4. Meanwhile, “first-middle taste” means the taste combining first taste and middle taste. The kokumi-imparting activity was widely seen in the above addition concentrations, and the results of the representative concentrations are shown in Table 5.

rat large intestine loop = experiment: Effect of a CaSR agonist on water absorption in rat large intestine loop method (PGE2-treated); assay type: in vivo; conditions: male SD (IGS) rat large intestine loop, PGE2 i.p.; compound in Tyrode solution
Experimental: The cecum and large intestine were taken out from the abdomen of a male SD (IGS) rat under pentobarbital anesthesia, and a large intestine loop was prepared by ligating a part 5 cm just below the cecum. Immediately after preparing the loop, PGE2 (4 μg/mL/kg, SIGMA) was intraperitoneally administered. 30 minutes later, 2 mL of Tyrode solution (NaCl 136.9 mM, KCl 2.7 mM, CaCl2.2H2O 1.8 mM, MgCl2.6H2O 1.04 mM, NaH2PO4.2H2O 0.04 mM, glucose 5.55 mM, NaHCO3 11.9 mM) was poured in the prepared loop. 1 hour later, the weight of the loop, the weight thereof when the liquid was removed from the loop, and the loop area were measured to calculate the weight per unit area of the liquid that remains in the loop.
A test compound was tested by dissolving it in Tyrode solution that was adjusted to pH 6.5 to 7.5.
The remaining liquid weight per unit area (g/cm^2) was calculated by the following formula. Remaining liquid weight per unit area (g/cm^2)=(loop weight−loop weight when the liquid was removed from the loop)/loop area
Water absorption was evaluated by calculating the inhibition ratio by the following formula. Inhibition ration (%)=100−(remaining liquid weight per unit area with a drug−basic average remaining liquid weight per unit area)/(average remaining liquid weight per unit area of vehicle−basic average remaining liquid weight per unit area)×100 […]

human CaSR = target: T1, human CaSR (Homo sapiens, UniProt P41180, E1011Q); experiment: Evaluation of CaSR agonistic activity (293E cells transfected with hCaSR, Ca2+ fluorescent indicator, FLIPR); assay type: cell-based; conditions: 293E cells expressing human CaSR; concentration giving activation rate 50%
T1 construct: expressed in transfected cells; host or cells: 293E cells (HEK293 expressing EBNA1, ATCC CRL-10852), transient transfection of hCaSR/pcDNA3.1
T1 sequence (P41180 20-1078 E1011Q): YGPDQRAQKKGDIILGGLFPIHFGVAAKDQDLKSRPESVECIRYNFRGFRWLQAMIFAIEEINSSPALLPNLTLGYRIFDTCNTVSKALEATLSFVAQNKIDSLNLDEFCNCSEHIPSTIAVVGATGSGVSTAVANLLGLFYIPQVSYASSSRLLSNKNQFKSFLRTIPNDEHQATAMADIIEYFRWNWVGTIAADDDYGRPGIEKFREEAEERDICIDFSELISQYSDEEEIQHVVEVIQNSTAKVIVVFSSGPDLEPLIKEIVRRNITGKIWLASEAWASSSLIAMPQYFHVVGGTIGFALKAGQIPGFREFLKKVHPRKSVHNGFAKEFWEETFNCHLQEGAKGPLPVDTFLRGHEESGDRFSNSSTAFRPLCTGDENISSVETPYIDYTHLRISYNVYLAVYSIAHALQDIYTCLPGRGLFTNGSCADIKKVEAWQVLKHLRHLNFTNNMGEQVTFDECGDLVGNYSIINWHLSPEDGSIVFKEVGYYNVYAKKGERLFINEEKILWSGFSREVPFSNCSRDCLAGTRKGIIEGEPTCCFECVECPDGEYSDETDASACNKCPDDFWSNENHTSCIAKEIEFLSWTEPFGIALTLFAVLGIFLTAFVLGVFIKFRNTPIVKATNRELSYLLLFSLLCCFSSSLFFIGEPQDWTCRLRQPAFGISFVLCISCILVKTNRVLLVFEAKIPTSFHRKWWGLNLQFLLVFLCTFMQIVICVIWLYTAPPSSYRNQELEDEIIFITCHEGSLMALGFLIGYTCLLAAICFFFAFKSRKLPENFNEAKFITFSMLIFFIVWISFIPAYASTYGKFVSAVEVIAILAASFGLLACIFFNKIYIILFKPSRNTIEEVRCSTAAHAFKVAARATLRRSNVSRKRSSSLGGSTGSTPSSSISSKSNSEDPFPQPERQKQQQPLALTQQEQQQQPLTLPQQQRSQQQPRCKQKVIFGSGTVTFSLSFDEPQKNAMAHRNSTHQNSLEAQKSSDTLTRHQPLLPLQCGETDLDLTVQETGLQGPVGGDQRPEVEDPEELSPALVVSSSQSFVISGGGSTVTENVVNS
Experimental: 293E cells (HEK293 cell expressing EBNA1, ATCC No. CRL-10852) were cultured in DMEM containing 10% fetal bovine serum (Dulbecco's modified Eagle medium containing […] Glucose, by NACALAI TESQUE, INC.), in the presence of 250 μg/mL of G418. The cells were spread on a petri dish of 10 cm diameter in 1.8×10^6 cells/15 mL. After leaving them in the CO2 incubator (5% CO2, 37° C.) for 24 hours, plasmid expressing human CaSR: hCaSR/pcDNA3.1 was transfected with a transfection reagent: Mirus TransIT 293 (by Takara Bio Inc.). After leaving it in the CO2 incubator for 24 hours, the cells were collected by DMEM containing 10% fetal bovine serum and seeded on poly-D-lysine coat 384 well plate (by Falcon) in 15,000 cells/well. After leaving them in the CO2 incubator for 24 hours, the medium was removed. Then, 50 μL/well of Ca^2+ fluorescent indicator: Calcium 4 Assay Kit (by Molecular Devices) that was dissolved in an assay buffer (146 mM NaCl, 5 mM KCl, 1 mM MgSO4, 1 mg/mL Glucose, 20 mM HEPES (pH 7.2), 1.5 mM CaCl2) was added thereto, and left at 37° C. for 1 hour and at room temperature for 30 minutes to absorb the fluorescent indicator. The 384 well plate was transferred to FLIPR (by Molecular Devices). Then, 12.5 μL/well of a compound that was dissolved in a 0.1% BSA containing assay buffer was added thereto, and change in fluorescence intensity was measured for 3 minutes. Meanwhile, Compound No. 20 was purchased from Bachem.
The difference between the maximum value and the minimum value (RFU(Max−Min)) of the fluorescence intensity before and after adding a compound was automatically calculated by FLIPR. RFU(Max−Min) when adding a compound in maximum concentration was defined as 100%; and RFU(Max−Min) when adding DMSO instead of the compound in the same concentration as that of the compound was defined as 0%.

Compound: Cc1c(Cl)cc(NC(=O)CC[C@H](N)C(=O)O)cc1S(=O)(=O)[O-].[Na+] [No.21-Na salt]
- Intensity of kokumi After taste ([1]; Conc. 0.0002 g/dL): 2.0
- Intensity of kokumi First-middle taste ([1]; Conc. 0.0002 g/dL): 1.5
- Intensity of kokumi After taste ([1]; Conc. 0.0005 g/dL): 3.1
- Intensity of kokumi First-middle taste ([1]; Conc. 0.0005 g/dL): 2.6
- Intensity of kokumi After taste ([1]; Conc. 0.001 g/dL): 3.7
- Intensity of kokumi First-middle taste ([1]; Conc. 0.001 g/dL): 3.1

- pEC50 (human CaSR): 8.72
Compound: N[C@@H](CCC(=O)Nc1cc(Cl)cc(S(=O)(=O)O)c1O)C(=O)O [Compound No. 7, N^5-(5-chloro-2-hydroxy-3-sulfophenyl)-L-glutamine]
- Water absorption (rat large intestine loop): promoted in a dose-dependent manner

Compound: γ Glu-Cys-Gly [γGlu-Cys-Gly, reference compound]
- Comments ([1]; Conc. 0.01 g/dL): Richness, thickness and continuity
- Intensity of kokumi After taste ([1]; Conc. 0.01 g/dL): 3.0
- Intensity of kokumi First-middle taste ([1]; Conc. 0.01 g/dL): 3.0

Compound: N[C@@H](CCC(=O)Nc1cc(Cl)cc(S(=O)(=O)[O-])c1O)C(=O)O.[Na+] [No.7-Na salt]
- Intensity of kokumi After taste ([1]; Conc. 0.00005 g/dL): 2.5
- Intensity of kokumi First-middle taste ([1]; Conc. 0.00005 g/dL): 2.2
- Comments ([1]; Conc. 0.0001 g/dL): There is about the same thickness
- Intensity of kokumi After taste ([1]; Conc. 0.0001 g/dL): 3.2
- Intensity of kokumi First-middle taste ([1]; Conc. 0.0001 g/dL): 2.5
- Intensity of kokumi After taste ([1]; Conc. 0.0005 g/dL): 4.0
- Intensity of kokumi First-middle taste ([1]; Conc. 0.0005 g/dL): 3.3

Compound: N[C@@H](CCC(=O)Nc1cccc(S(=O)(=O)[O-])c1)C(=O)O.[Na+] [No.1-Na salt]
- Intensity of kokumi After taste ([1]; Conc. 0.00001 g/dL): 1.0
- Intensity of kokumi First-middle taste ([1]; Conc. 0.00001 g/dL): 0.7
- Intensity of kokumi After taste ([1]; Conc. 0.0001 g/dL): 2.0
- Intensity of kokumi First-middle taste ([1]; Conc. 0.0001 g/dL): 1.8
- Intensity of kokumi After taste ([1]; Conc. 0.0005 g/dL): 3.0
- Intensity of kokumi First-middle taste ([1]; Conc. 0.0005 g/dL): 2.6
- Comments ([1]; Conc. 0.001 g/dL): All tastes are strong, mainly
- Intensity of kokumi After taste ([1]; Conc. 0.001 g/dL): 3.6
- Intensity of kokumi First-middle taste ([1]; Conc. 0.001 g/dL): 3.2
- Comments ([1]; Conc. 0.01 g/dL): All tastes are strong.
- Intensity of kokumi After taste ([1]; Conc. 0.01 g/dL): 5.0
- Intensity of kokumi First-middle taste ([1]; Conc. 0.01 g/dL): 5.0

- pEC50 (human CaSR): 7.92
Compound: N[C@@H](CCC(=O)Nc1cccc(S(=O)(=O)O)c1)C(=O)O [Compound No. 1, N^5-(3-sulfophenyl)-L-glutamine]
- Water absorption (rat large intestine loop): promoted in a dose-dependent manner

Compound: γ Glu-Val-Gly [γGlu-Val-Gly, reference compound]
- Comments ([1]; Conc. 0.001 g/dL): Mellowness, richness and growth
- Intensity of kokumi After taste ([1]; Conc. 0.001 g/dL): 3.0
- Intensity of kokumi First-middle taste ([1]; Conc. 0.001 g/dL): 2.5
- Comments ([1]; Conc. 0.005 g/dL): Mellowness, richness and growth
- Intensity of kokumi After taste ([1]; Conc. 0.005 g/dL): 4.0
- Intensity of kokumi First-middle taste ([1]; Conc. 0.005 g/dL): 3.5
